For orientation: IC50 means the midpoint of a concentration-inhibition curve.

Common to all, as to assay: PrestoBlue cell viability, 72-hour treatment, limiting dilution
Experiment [1] relates to SU_MB002. The class given is cell-based, human. The settings on record: for potency on tumor cell viability: SU_MB002 tumor cells. The protocol: (§1) SU_MB002, NSC194, NSC197 and NSC201FT, MBT375 and MED411FHTC were maintained in Neurocult Complete (NCC) media (Stem Cell Technologies; catalogue #05751). D425 and D458 were maintained in Dulbecco's […] (DMEM) containing 10% fetal bovine serum (FBS). HD-MB03 were maintained in NCC containing 10% FBS. All cell lines were conditioned in NCC for a minimum of 48 hours before experimentation. SU_MB002 and HD-MB03 G3MB-MYC PDOX were obtained from collaborators as kind gifts and are frequently passaged in vivo. SU_MB002, a treatment-refractory group 3 MB acquired at autopsy was received from Dr. Yoon-Jae Cho. Dr. Till Milde provided HD-MB03, a treatment-naïve group 3 MBs. ICB1299 group 4 MB cells were obtained as a gift from Silvia Marino's laboratory^62. MBT375 was established in-house from a surgical specimen of group 4 MB, which was engrafted in the cerebellum of mice for serial propagation. Nanostring genotyping was used to confirm group 4 medulloblastoma identity. MED411FHTC PDOX were procured from Dr. Olson's brain tumor research lab. D425 and D458 were obtained from the ATCC. All cell lines were fingerprint verified by short tandem repeat (STR) profiling. NSC194, NSC197 and NSC201FT were derived in-house from donor fetal brain tissues^63.
(§2) For assessment of viability, cells were seeded into 96-well plates at a density of 1,000 cells per well. Viability was measured by adding PrestoBlue™ diluted 1:10 (ThermoFisher Scientific; Catalogue #A13261) followed by a 4-hour incubation. Relative fluorescence intensity was determined via background correction. To assess tumorsphere forming capacity, cells were seeded at a low density (200 cells per well) and incubated for 3-5 days. Tumorspheres were manually counted thereafter.

The test system of experiment [2] is D458. The class given is cell-based. The settings on record: Homo sapiens; D458, G3MB-MYC; read-out: Brequinar IC50. The protocol:
as §1, §2

Experiment [3] has as its system D425. The class given is cell-based. The settings on record: Homo sapiens; D425, G3MB-MYC; read-out: Brequinar IC50. The method, then:
as §1, §2

Experiment [4] relates to HD-MB03. The class given is cell-based. The settings on record: Homo sapiens; HD-MB03, G3MB-MYC; read-out: Brequinar IC50. The method, then:
as §1, §2

In experiment [5] the test system is MED411-FHTC. The class given is cell-based. The settings on record: Homo sapiens, G3MB-MYC, read-out: Brequinar IC50. The protocol:
as §1, §2

On to `Cc1c(-c2ccc(-c3ccccc3F)cc2)nc2ccc(F)cc2c1C(=O)O` [Brequinar], for which the IC50 in experiment [1] (Homo sapiens, SU_MB002, G3MB-MYC, read-out: Brequinar IC50) came to 302 nM; in experiment [2] it was 110 nM; in experiment [3], 122 nM; in experiment [4], 54.4 nM; in experiment [5], 137 nM. Besides, in experiment [1] (SU_MB002, media with uridine hydrochloride (100 μM)), the “tumor cell proliferation and viability with uridine supplementation” value was “rescues”. In experiment [1], the “potency on tumor cell viability” value is reported as “nanomolar range”.

As for `COc1ccc([C@H]2c3[nH]c4ccc(Cl)cc4c3CCN2C(=O)Oc2ccc(Cl)cc2)cc1` [PTC299], the “potency on tumor cell viability” value in experiment [1] was “nanomolar range”.

The record behind these values is patent publication US20250152559A1, “METHODS FOR TREATING MYC-AMPLIFIED CANCER” (The Governing Council of the University of Toronto, priority 2023, published 2025).
